According to patent US7888285B2, “2,4,6-phenyl substituted cyclic ketoenols” (Bayer CropScience AG, priority 2003, dated 2011):

Experiments:
Type in all cases: in vivo
[1] = system: cereals; assay: Container experiments with cereals outside the greenhouse, herbicide:mefenpyr 1:2 tank mix; settings: no safener
Protocol: (§1) Seeds of monocotyledonous and dicotyledonous weed and crop plants are placed in sandy loam in wood fibre pots or in plastic pots, covered with soil and grown in the greenhouse or, during the vegetation period, in the open outside the greenhouse, under good growth conditions. 2 to 3 weeks after sowing, the test plants are treated in the one- to three-leaf stage. The test compounds, which are formulated as wettable powder (WP) or as a fluid (EC), are sprayed onto the plants and the soil surface at various dosage rates with a water application rate of 300 l/ha (converted), with added wetter (0.2 to 0.3%). 3 to 4 weeks after the treatment of the test plants, the effect of the preparations is scored visually in comparison with untreated controls (herbicidal activity in per cent (%): 100% activity=plants have died, 0% activity=like control plants).
(§2) If it is additionally desired to test whether safeners are capable of improving the plant tolerance of test substances with regard to the crop plants, the following options for applying the safeners are used: • Prior to application of the test substances, the crop plants are sprayed with safener at a particular application rate per hectare (usually 1 day prior to application of the test substances). • The safener is applied together with the test substance in the form of a tank mix (the amount of safener being indicated in g/ha or as a safener:herbicide ratio).
(§3) The activity of the safener substance can be assessed in comparison with untreated control plants by comparing the effect of test substances on crop plants which have been treated without and with safener.
Container Experiments with Cereals Outside the Greenhouse Herbicide: mefenpyr 1:2 tank mix

[2] = system: Alopecurus; assay: Pre-emergence test; settings: greenhouse, 250 g a.i./ha, scored after three weeks
Protocol: (§4) [table] To prepare a suitable active compound preparation, 1 part by weight of active compound is mixed with the stated amount of solvent, the stated amount of emulsifier is added, and the concentrate is diluted with water to the desired concentration. Seeds of the test plant are sown in normal soil. After approximately 24 hours, the soil is sprayed with the active compound preparation in such a way that the amounts of active compound desired in each case are applied per unit area. The concentration of the spray mixture is chosen in such a way that the amounts of active compound desired in each case are applied in 1 000 1 of water/ha. After three weeks, the degree of damage of the plants is scored in % damage in comparison with the development of the untreated control.

[3] = system: sugar beet; assay: Pre-emergence test; settings: greenhouse, 250 g a.i./ha, scored after three weeks
Protocol: as §4

[4] = system: Avena fatua; assay: Pre-emergence test; settings: greenhouse, 250 g a.i./ha, scored after three weeks
Protocol: as §4

[5] = system: Setaria; assay: Pre-emergence test; settings: greenhouse, 250 g a.i./ha, scored after three weeks
Protocol: as §4

[6] = system: green rice leafhopper (Nephotettix cincticeps); assay: Nephotettix test; settings: 1000 ppm
Protocol: To produce a suitable preparation of active compound, 1 part
by weight of active compound is mixed with the stated amounts of solvent and emulsifier, and the concentrate is diluted with emulsifier-containing water to the desired concentration.
Rice seedlings (Oryza sativa) are treated by being dipped into the preparation of active compound of the desired concentration and are infested with the green rice leafhopper (Nephotettix cincticeps) while the leaves are still moist.
After the desired time, the destruction in % is determined. 100% means that all the leafhoppers have been killed; 0% means that none of the leafhoppers have been killed.

[7] = system: green peach aphid (Myzus persicae); assay: Myzus test; settings: 1000 ppm
Protocol: To prepare a suitable active compound preparation, 1 part by weight of active compound is mixed with the stated amounts of solvent and emulsifier and the concentrate is diluted with emulsifier-containing water to the desired concentration.
Cabbage leaves (Brassica oleracea), which are severely infested with the green peach aphid (Myzus persicae) are treated by immersing them into the active compound preparation of the desired concentration.
After the desired time, the destruction rate is determined in %. 100% means that all of the aphids have been destroyed; 0% means that none of the aphids have been destroyed.

[8] = system: caterpillars of the diamond-back moth (Plutella xylostella); assay: Plutella test; settings: 1000 ppm
Protocol: (§5) To produce a suitable preparation of active compound, 1 part by weight of active compound is mixed with the stated amounts of solvent and emulsifier, and the concentrate is diluted with emulsifier-containing water to the desired concentration.
Cabbage leaves (Brassica oleracea) are treated by being dipped into the preparation of active compound of the desired concentration and are infested with caterpillars of the diamond-back moth (Plutella xylostella) while the leaves are still moist.
After the desired time, the destruction in % is determined. 100% means that all the caterpillars have been killed; 0% means that none of the caterpillars have been killed.

[9] = system: greenhouse red spider mite (Tetranychus urticae); assay: Tetranychus test (OP-resistant/immersion treatment); settings: 1000 ppm
Protocol: as §5
Bean plants (Phaseolus vulgaris) which are severely infested with all stages of the greenhouse red spider mite (Tetranychus urticae) are dipped into a preparation of the active compound of the desired concentration.
After the desired time, the activity in % is determined. 100% means that all the spider mites have been killed; 0% means that none of the spider mites have been killed.

[10] = system: sugar beet; assay: Post-emergence test; settings: greenhouse, 250 g a.i./ha, scored after three weeks
Protocol: (§6) To prepare a suitable active compound preparation, 1 part by weight of active compound is mixed with the stated amount of solvent, the stated amount of emulsifier is added, and the concentrate is diluted with water to the desired concentration.
(§7) Test plants with a height of 5-15 cm are sprayed with the active compound preparation in such a way that the amounts of active compound desired in each case are applied per unit area. The concentration of the spray mixture is chosen in such a way that the amounts of active compound desired in each case are applied in 1 000 1 of water/ha.
(§8) After three weeks, the degree of damage of the plants is scored in % damage in comparison with the development of the untreated control.
(§9) The figures denote: • 0% =no effect (like untreated control) • 100% =total destruction

[11] = system: Amaranthus; assay: Post-emergence test; settings: greenhouse, 250 g a.i./ha, scored after three weeks
Protocol: as §6, §7, §8, §9

[12] = system: Avena fatua; assay: Post-emergence test; settings: greenhouse, 250 g a.i./ha, scored after three weeks
Protocol: as §6, §7, §8, §9

[13] = system: Setaria; assay: Post-emergence test; settings: greenhouse, 250 g a.i./ha, scored after three weeks
Protocol: as §6, §7, §8, §9

[14] = system: larvae of the mustard beetle (Phaedon cochleariae); assay: Phaedon larvae test; settings: 1000 ppm
Protocol: [table] To produce a suitable preparation of active compound, 1 part by weight of active compound is mixed with the stated amounts of solvent and emulsifier, and the concentrate is diluted with emulsifier-containing water to the desired concentration. Cabbage leaves (Brassica oleracea) are treated by being dipped into the preparation of active compound of the desired concentration and are infested with the larvae of the mustard beetle (Phaedon cochleariae) while the leaves are still moist.

[15] = system: Echinochloa; assay: Pre-emergence test; settings: greenhouse, 250 g a.i./ha, scored after three weeks
Protocol: as §4

[16] = system: Echinochloa; assay: Post-emergence test; settings: greenhouse, 250 g a.i./ha, scored after three weeks
Protocol: as §6, §7, §8, §9

[17] = system: Alopecurus; assay: Post-emergence test; settings: greenhouse, 250 g a.i./ha, scored after three weeks
Protocol: as §6, §7, §8, §9

[18] = system: Sinapis; assay: Post-emergence test; settings: greenhouse, 250 g a.i./ha, scored after three weeks
Protocol: as §6, §7, §8, §9

[19] = system: cereals; assay: Greenhouse experiment with cereals with 100 g a.i./ha mefenpyr, post-emergence, evaluation 21 days after application; settings: 50 g a.i./ha, no safener
Protocol: as §1, with “plants). […]” for “plants).”
(§10) The activity of the safener substance can be assessed in comparison with untreated control plants by comparing the effect of test substances on crop plants which have been treated without and with safener. […]

[20] = system: Spring barley; assay: Post-emergence crop plant tolerance, greenhouse experiments with safener pretreatment (mefenpyr)
Protocol: (§11) Post-Emergence Crop Plant Tolerance
as §1, §2, §3
(§12) Results of Greenhouse Experiments With Safener/Pretreatment (Safener Mefenpyr (100 g a.i./ha), One Day Prior to Post-Emergence Treatment With the Herbicide)

[21] = system: Spring wheat; assay: as above
Protocol: as §11, §1, §2, §3, §12

[22] = system: cereals; assay: Container experiments with cereals outside the greenhouse, herbicide + mefenpyr 50 g a.i./ha; settings: 100 g a.i./ha, no safener
Protocol: as §1, with “plants). […]” for “plants).”
as §10

[23] = application rate 25 g a.i./ha, without safener
[24] = application rate 50 g a.i./ha, without safener
[25] = application rate 100 g a.i./ha, without safener
[26] = 50 g a.i./ha herbicide, no safener
[27] = 100 g a.i./ha herbicide, no safener

CCc1cc(Cl)cc(OC)c1C1=C(OC(=O)C(C)(C)C)C2(CCC(C)CC2)NC1=O (single isomer, unassigned) [Example I-1-b-4]
Spring barley observed (%) ([1]; 50 g a.i./ha): 60%

COc1cc(Cl)cc(C)c1C1=C(O)C2(CCOCC2)NC1=O [Example I-1-a-2]
degree of damage, Alopecurus [2]: 100%
degree of damage, sugar beet [3]: 0%
degree of damage, Avena fatua [4]: 80%
degree of damage, Setaria [5]: 80%
Destruction in % after 6 d [6]: 100%
Destruction in % after 6 d [7]: 100%
Destruction in % after 7 d [8]: 100%
Destruction in % after 7 d [9]: 95%
degree of damage, sugar beet [10]: 0%
degree of damage, Amaranthus [11]: 90%
degree of damage, Avena fatua [12]: 100%
degree of damage, Setaria [13]: 100%
Destruction in % after 7 d [14]: 100%

CCc1cc(Cl)cc(OC)c1C1=C(O)C(C)(C)NC1=O [Example I-1-a-5]
degree of damage, Echinochloa [15]: 100%
degree of damage, Alopecurus [2]: 90%
degree of damage, Avena fatua [4]: 100%
degree of damage, Setaria [5]: 100%
degree of damage, Echinochloa [16]: 100%
degree of damage, Alopecurus [17]: 100%
degree of damage, Sinapis [18]: 80%
degree of damage, Avena fatua [12]: 100%
degree of damage, Setaria [13]: 100%

CCc1cc(Cl)cc(OC)c1C1=C(O)C2(CCCCC2)NC1=O [Example I-1-a-6]
degree of damage, Echinochloa [16]: 100%
degree of damage, Alopecurus [17]: 90%
degree of damage, Sinapis [18]: 80%
degree of damage, Avena fatua [12]: 100%
Winter barley (%) ([19]; winter barley): 20%
Winter wheat (%) ([19]; winter wheat): 10%
Destruction in % after 7 d [14]: 90%

CCc1cc(Cl)cc(OC)c1C1=C(O)C2(CCCCC2)OC1=O [Example I-2-a-1]
Spring barley observed (%) [20, 23]: 10%
Spring barley observed (%) [20, 24]: 15%
Spring barley observed (%) [20, 25]: 20%
Spring wheat observed (%) [21, 23]: 20%
Spring wheat observed (%) [21, 24]: 20%
Spring wheat observed (%) [21, 25]: 30%

CCc1cc(Cl)cc(OC)c1C1=C(OC(=O)C(C)(C)C)C2(CCCCC2)OC1=O [Example I-2-b-1]
Spring barley observed (%) [20, 26]: 10%
Spring barley observed (%) [20, 27]: 20%
Spring wheat observed (%) ([21]; 25 g a.i./ha herbicide, no safener): 20%
Spring wheat observed (%) [21, 26]: 40%
Spring wheat observed (%) [21, 27]: 60%
Spring barley observed (%) ([1]; 100 g a.i./ha): 20%
Spring wheat observed (%) ([1]; 100 g a.i./ha): 30%

CCOC(=O)OC1=C(c2c(CC)cc(Cl)cc2OC)C(=O)OC12CCCCC2 [Example I-2-c-1]
Spring barley observed (%) ([22]; spring barley): 50%
Spring wheat observed (%) ([22]; spring wheat): 65%
Spring wheat observed (%) [21, 26]: 20%
Spring wheat observed (%) [21, 27]: 30%
Spring barley observed (%) ([1]; 100 g a.i./ha): 15%
Spring wheat observed (%) ([1]; 100 g a.i./ha): 40%
